{"source": "paper PMC4641580", "about": "(ACS Medicinal Chemistry Letters, 2015)", "key": {"[1]": {"test_system": "Mycobacterium tuberculosis PtpB", "type": "biochemical", "conditions": "read-out: IC50 PtpB"}, "human PTP1B": {"biological_target": "T1, human PTP1B (Homo sapiens, UniProt P18031)", "T1 sequence (P18031 1-435)": "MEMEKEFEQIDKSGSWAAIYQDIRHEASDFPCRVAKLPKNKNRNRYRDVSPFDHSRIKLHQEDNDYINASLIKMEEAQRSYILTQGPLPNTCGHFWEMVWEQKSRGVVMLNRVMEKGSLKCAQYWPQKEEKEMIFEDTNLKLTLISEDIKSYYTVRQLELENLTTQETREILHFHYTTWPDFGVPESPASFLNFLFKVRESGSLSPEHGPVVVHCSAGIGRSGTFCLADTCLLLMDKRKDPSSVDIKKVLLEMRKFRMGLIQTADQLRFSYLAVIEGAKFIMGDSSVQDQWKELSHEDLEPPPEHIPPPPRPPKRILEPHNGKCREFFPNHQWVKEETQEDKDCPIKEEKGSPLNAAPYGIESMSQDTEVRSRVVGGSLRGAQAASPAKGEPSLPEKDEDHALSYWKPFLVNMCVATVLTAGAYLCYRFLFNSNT", "type": "biochemical"}, "human LYP": {"biological_target": "T2, human LYP (Homo sapiens, UniProt Q9Y2R2)", "T2 sequence (Q9Y2R2 1-807)": "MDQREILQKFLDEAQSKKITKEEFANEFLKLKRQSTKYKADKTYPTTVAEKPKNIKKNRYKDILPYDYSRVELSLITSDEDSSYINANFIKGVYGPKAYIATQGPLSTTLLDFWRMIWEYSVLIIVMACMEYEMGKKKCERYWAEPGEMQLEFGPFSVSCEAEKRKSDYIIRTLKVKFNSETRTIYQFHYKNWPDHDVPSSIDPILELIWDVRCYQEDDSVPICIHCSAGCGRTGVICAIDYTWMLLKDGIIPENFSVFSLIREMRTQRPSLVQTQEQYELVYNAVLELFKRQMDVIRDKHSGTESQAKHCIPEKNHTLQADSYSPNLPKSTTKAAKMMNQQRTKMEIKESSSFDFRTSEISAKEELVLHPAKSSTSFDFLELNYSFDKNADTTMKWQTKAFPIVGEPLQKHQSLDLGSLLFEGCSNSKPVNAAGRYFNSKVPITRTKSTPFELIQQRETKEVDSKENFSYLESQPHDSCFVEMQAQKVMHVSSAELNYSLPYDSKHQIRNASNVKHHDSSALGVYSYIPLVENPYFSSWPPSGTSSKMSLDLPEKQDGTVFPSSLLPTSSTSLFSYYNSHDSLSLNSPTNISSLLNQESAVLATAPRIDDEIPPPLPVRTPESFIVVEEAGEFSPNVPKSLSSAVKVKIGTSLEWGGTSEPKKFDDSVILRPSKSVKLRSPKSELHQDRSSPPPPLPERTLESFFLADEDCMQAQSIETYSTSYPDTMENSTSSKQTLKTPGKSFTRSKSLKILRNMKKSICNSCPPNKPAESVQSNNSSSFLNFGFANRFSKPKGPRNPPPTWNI", "type": "biochemical"}, "human PTP-PEST": {"biological_target": "T3, human PTP-PEST (Homo sapiens, UniProt Q05209)", "T3 sequence (Q05209 1-780)": "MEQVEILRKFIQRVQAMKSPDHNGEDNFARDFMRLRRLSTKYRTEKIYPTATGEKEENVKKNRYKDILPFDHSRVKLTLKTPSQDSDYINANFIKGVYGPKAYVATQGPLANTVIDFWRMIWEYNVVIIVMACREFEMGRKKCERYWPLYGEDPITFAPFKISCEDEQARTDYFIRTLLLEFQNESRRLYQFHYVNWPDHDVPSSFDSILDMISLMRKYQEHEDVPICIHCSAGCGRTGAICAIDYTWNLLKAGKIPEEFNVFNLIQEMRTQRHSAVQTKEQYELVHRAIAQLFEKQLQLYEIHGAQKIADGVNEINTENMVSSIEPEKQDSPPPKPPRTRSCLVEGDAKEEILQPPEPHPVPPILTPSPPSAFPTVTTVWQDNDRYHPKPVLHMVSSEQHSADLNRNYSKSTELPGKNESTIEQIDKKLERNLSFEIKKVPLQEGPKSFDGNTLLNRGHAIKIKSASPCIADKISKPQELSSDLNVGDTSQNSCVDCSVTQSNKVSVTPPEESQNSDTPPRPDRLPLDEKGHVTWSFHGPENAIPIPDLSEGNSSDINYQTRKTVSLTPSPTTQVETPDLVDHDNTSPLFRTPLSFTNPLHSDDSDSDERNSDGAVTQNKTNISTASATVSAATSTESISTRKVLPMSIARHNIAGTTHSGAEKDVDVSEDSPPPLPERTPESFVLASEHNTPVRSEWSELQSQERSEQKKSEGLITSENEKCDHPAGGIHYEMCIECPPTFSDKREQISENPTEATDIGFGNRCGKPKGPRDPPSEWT", "type": "biochemical"}, "YopH": {"biological_target": "YopH (Yersinia enterocolitica, UniProt P15273)", "sequence (P15273 whole entry, looked up)": "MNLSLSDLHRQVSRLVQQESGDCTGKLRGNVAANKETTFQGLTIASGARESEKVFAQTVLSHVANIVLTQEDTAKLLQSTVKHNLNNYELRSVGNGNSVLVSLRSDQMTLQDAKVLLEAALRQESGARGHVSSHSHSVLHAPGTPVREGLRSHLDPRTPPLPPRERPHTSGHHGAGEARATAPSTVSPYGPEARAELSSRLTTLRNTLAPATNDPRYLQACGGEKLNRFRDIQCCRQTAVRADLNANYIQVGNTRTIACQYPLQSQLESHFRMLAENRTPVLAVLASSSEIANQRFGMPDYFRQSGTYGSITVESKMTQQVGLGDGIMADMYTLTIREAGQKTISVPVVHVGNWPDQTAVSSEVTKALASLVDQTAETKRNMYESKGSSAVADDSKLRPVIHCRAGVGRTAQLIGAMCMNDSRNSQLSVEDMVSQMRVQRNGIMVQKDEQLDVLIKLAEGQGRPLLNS", "type": "biochemical", "conditions": "read-out: Ki against YopH"}, "[2]": {"biological_target": "Mycobacterium tuberculosis PtpA (Mycobacterium tuberculosis, UniProt P9WIA1)", "sequence (P9WIA1 whole entry)": "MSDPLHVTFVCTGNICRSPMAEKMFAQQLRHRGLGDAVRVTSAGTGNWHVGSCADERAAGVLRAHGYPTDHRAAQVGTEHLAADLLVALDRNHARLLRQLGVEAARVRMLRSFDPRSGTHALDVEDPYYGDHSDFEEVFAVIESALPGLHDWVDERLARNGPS"}}, "data": [{"molecule": "[O]=[V]([S]c1cccc[n+]1[O-])[S]c1cccc[n+]1[O-]", "note": "[Compound 3, Bis(pyridine-2-thiol N-oxide) oxovanadium(IV)]", "values": [{"measurement": "IC50", "setting": "[1]", "value": "52.6 ± 1.56", "unit": "µM"}, {"measurement": "SI (IC50PTP/IC50YopH) PTP1B", "setting": "human PTP1B", "value": 2.7}, {"measurement": "IC50", "setting": "human PTP1B; read-out: IC50 PTP1B", "value": "0.78 ± 0.02", "unit": "µM"}, {"measurement": "SI (IC50PTP/IC50YopH) LYP", "setting": "human LYP", "value": 97.6}, {"measurement": "IC50", "setting": "human LYP; read-out: IC50 LYP", "value": "28.3 ± 1.71", "unit": "µM"}, {"measurement": "SI (IC50PTP/IC50YopH) PTP–PEST", "setting": "human PTP-PEST", "value": 142.4}, {"measurement": "IC50", "setting": "human PTP-PEST; read-out: IC50 PTP–PEST", "value": "41.3 ± 3.19", "unit": "µM"}, {"measurement": "Ki", "setting": "YopH", "value": 0.19, "unit": "µM"}, {"measurement": "SI (IC50PTP/IC50YopH) PtpA", "setting": "[2]", "value": 31.5}, {"measurement": "IC50", "setting": "[2]; read-out: IC50 PtpA", "value": "9.12 ± 0.26", "unit": "µM"}]}]}
